Source: patent US9101642B2, “Ticagrelor co-crystal” (AstraZeneca AB, priority 2011, dated 2015)

How the values were obtained:
[1] = Micro-dissolution in blank Fassif (fasted intestinal fluid without micelle forming components); assay type: physicochemical; conditions: blank Fassif pH 6.5, 9 mg in 25 ml, mean of n = 2
Method: (§1) Micro-dissolution investigations were performed on 9 mg of a sample of Compound A:acetyl salicylic acid co-crystal (prepared as described in Example 4) or Compound A Form II in both 25 ml of (i) Fasted intestinal fluid (Fassif) without micelle forming components (termed blank Fassif) and (ii) of Simulated Gastric Fluid (SGF). The samples were magnetically stirred and aliquots were taken at appropriate time intervals, centrifuged and the supernatant analysed by HPLC and the concentration of Compound A measured as a function of time.
Fasted intestinal fluid without micelle forming components (blank Fassif) media was prepared from 0.348 g NaOH pellets, 3.954 g NaH2PO4.H2O and 6.186 g NaCl in 1 L milli-Q water. The pH was then adjusted to pH 6.5 with 1N NaOH or 1N HCl.

[2] = Micro-dissolution in Simulated Gastric Fluid (SGF); assay type: physicochemical; conditions: 9 mg in 25 ml, mean of n = 2
Method: as §1
Simulated Gastric Fluid (SGF) media was prepared by adding 131.5 ml 1M HCl to 4 g NaCl and the resulting solution made up to 2 Liters with milli-Q water (de-ionised water).

Concentration of Compound A ([1]; time 0 mins): 0 ng/mL | Concentration of Compound A ([1]; time 10 mins): 2950 ng/mL | Concentration of Compound A ([1]; time 20 mins): 3240 ng/mL | Concentration of Compound A ([1]; time 30 mins): 3310 ng/mL | Concentration of Compound A ([1]; time 60 mins): 3510 ng/mL | Concentration of Compound A ([1]; time 240 mins): 3370 ng/mL | Concentration of Compound A ([2]; time 0 mins): 0 ng/mL | Concentration of Compound A ([2]; time 10 mins): 7820 ng/mL | Concentration of Compound A ([2]; time 20 mins): 8100 ng/mL | Concentration of Compound A ([2]; time 30 mins): 8520 ng/mL | Concentration of Compound A ([2]; time 60 mins): 8100 ng/mL | Concentration of Compound A ([2]; time 240 mins): 8450 ng/mL
Structure (SMILES): CCCSc1nc(N[C@@H]2C[C@H]2c2ccc(F)c(F)c2)c2nnn([C@@H]3C[C@H](OCCO)[C@@H](O)[C@H]3O)c2n1 (relative stereo) [Compound A Form II, {1S-[1α,2α, 3β(1S*,2R*),5β]}-3-(7-{[2-(3,4-difluorophenyl)cyclopropyl]amino}-5-(propylthio)-3H-1,2,3-triazolo[4,5-d]pyrimidin-3-yl)-5-(2-hydroxyethoxy)cyclopentane-1,2-diol]
